Test results reported in US11390631B1, “Benzodiazepine derivatives as RSV inhibitors” (priority 2015, dated 2022).

Experiments:
[1] = Cytotoxicity on parallel plate without virus, ATPlite readout; assay type: cell-based; conditions: human, Hep-2 cells (no virus), Hep-2 cells without virus, 5-day incubation
In short: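 Hep-2 cells, 8,000/well, received duplicate 2-fold compound dilutions with growth medium in place of virus. After 5 days, viability measured as ATP by ATPlite luminescence. CC50 reported in ranges: A>50 μM; B 10-50 μM; C<10 μM.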

[2] = system: RSV-B, genotype B, strain 9320; assay: RSV-B assay: A549 cells infected with RSV-B, qPCR or ATPlite readout; assay type: cell-based, Human respiratory syncytial virus (HRSV); conditions: human respiratory syncytial virus, A549, read-out: Human RSV-B EC50
Source text: Hep-2 cells, (originally derived from tumors grown in irradiated-cortisonised weanling rats that had been injected with epidermoid carcinoma tissue from a person's larynx, but later found to be indistinguishable from HeLa cells by PCR DNA analysis), were used for the culturing of genotype B, strain 9320. Flasks were inoculated with RSV-B and viral stocks were collected once cytopathic effect (CPE) was greater than […]. Viral stocks in 25% o sucrose media were snap frozen using liquid nitrogen to increase viral stability. Viral stock titers were quantified by tissue culture infectious dose 50% o (TCID50) using 8,000 cells per well and 5-fold viral dilutions across a 96-well plate, cultured for 4 days. Viral stock titers were also quantified by a plaque forming unit assay, as described elsewhere.
The assay is run as follows: A549 cells (originally derived through explant culture from a person's carcinomatous lung tissue) are seeded into the inner 60 wells of a 96-well plate at 3,000 cells per well in a volume of 50 μL using A549 growth media (F-12K Media, 1% Penn/Strep, 1% nonessential amino acids, 10% heat-inactivated FBS). 2-fold serial dilutions of control and test compounds are added to the wells in duplicate in a total volume of 25 μL. Viral stock is then added to the wells at a multiplicity of infection (MOI) of 0.5 in a volume of 25 μL, bringing the total volume of each well to 100 μL. The MOI is calculated using the PFU/mL, or TCID50 if unavailable. Each 96-well plate has a control column of 6 wells with cells and virus but no compound (negative control, max CPE), a column with cells but no compound or virus (positive control, minimum CPE), and a column with no cells or virus or compound (background plate/reagent control). The control wells with cells but no virus are given an additional 25 uL of growth media containing an equal quantity of sucrose as those wells receiving the viral stock in order to keep consistent in media and volume conditions. The outer wells of the plate are filled with 125 μL of moat media (DMEM, 1% Penn/Strep) to act as a thermal and evaporative moat around the test wells. 6 days post infection, the plates are read using qPCR or ATP lite (50 uL added per well), which quantifies the amount of ATP (a measure of cell health) present in each well. Assay plates treated with APTlite are read using the Envision luminometer. […] EC50 ranges are as follows: A<0.4 μM; B 0.4-0.8 μM; C>0.8 μM.

[3] = system: Human RSV-A (“Long” strain); assay: RSV-A assay: inhibition of cytopathic effect in Hep-2 cells, ATPlite readout; assay type: cell-based, Human respiratory syncytial virus (HRSV); conditions: human respiratory syncytial virus, HEp-2, 120 h, read-out: Human RSV-A (“Long” strain) EC50
In short: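 Cytopathic-effect protection was read as ATP content (ATPlite luminescence) after a 5-day incubation. Setup: Hep-2 cells at 8,000 per well, RSV-A Long at MOI 0.1, 2-fold serial compound dilutions in duplicate. Cytotoxicity (CC50) was measured on an identical uninfected plate run in parallel.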

With `O=C1Nc2ccccc2C(c2ccccc2)=N[C@@H]1Nc1nnc(-c2ccc(F)cc2)o1` [Example 7a] the CC50 at 5 days [1] was greater than 50000 nM, the EC50 [2] was greater than 800 nM and the EC50 [3] was 400 to 800 nM.

In the case of `N#Cc1cnc(-c2nnc(N[C@H]3N=C(c4ccccc4)c4ccccc4NC3=O)o2)c(N2CC3CCC(C2)O3)c1` [Example 304], the EC50 [2] is reported as less than 400 nM and the EC50 [3] is reported as less than 400 nM.

In the case of `O=C1Nc2ccccc2C(c2ccccc2)=N[C@@H]1Nc1nnc(-c2nc3ccccc3cc2N2CCOCC2)o1` [Example 322], the EC50 [2] is reported as less than 400 nM and the EC50 [3] is reported as less than 400 nM.

In the case of `O=C1Nc2ccccc2C(c2ccccc2)=N[C@@H]1Nc1nnc(-c2ncsc2N2CCOCC2)o1` [Example 336], the EC50 [2] is reported as less than 400 nM and the EC50 [3] is reported as less than 400 nM.

`O=C1Nc2ccccc2C(c2ccccc2)=N[C@@H]1Nc1nnc(-c2nc(C3CC3)sc2N2CCOCC2)o1` [Example 338] showed an EC50 [2] of less than 400 nM and an EC50 [3] of less than 400 nM.

`O=C1Nc2ccccc2C(c2ccccc2)=N[C@@H]1Nc1nnc(-c2nc(C(F)(F)F)sc2N2CCOCC2)o1` [Example 339] gave an EC50 [2] of less than 400 nM and an EC50 [3] of less than 400 nM.

Work on `O=C1Nc2ccccc2C(c2ccccc2)=N[C@@H]1Nc1nnc(-c2nc(-c3ccccc3)sc2N2CCOCC2)o1` [Example 340] yielded an EC50 [2] of less than 400 nM and an EC50 [3] of less than 400 nM.

Work on `O=C1Nc2ccccc2C(c2ccccc2)=N[C@@H]1Nc1nnc(-c2nc(-c3ccccn3)sc2N2CCOCC2)o1` [Example 341] yielded an EC50 [2] of less than 400 nM and an EC50 [3] of less than 400 nM.

Compound `O=C1Nc2ccccc2C(c2ccccc2)=N[C@@H]1Nc1nnc(-c2csc(N3CCOCC3)n2)o1` [Example 351] has an EC50 [2] of 400 to 800 nM and an EC50 [3] of 400 to 800 nM.

For `O=C1Nc2c(F)cccc2C(c2ccccc2)=N[C@@H]1Nc1nnc(-c2ccccc2N2CCOCC2)o1` [Example 355a], the EC50 [2] was less than 400 nM and the EC50 [3] was less than 400 nM.

Compound `O=C1Nc2ccccc2C(c2ccccc2)=NC1Nc1nnc(-c2ccc(-n3cccn3)cc2)[nH]1` (stereo not shown) [Example 364] has an EC50 [2] of 400 to 800 nM and an EC50 [3] of less than 400 nM.

Work on `N#Cc1ccc(-c2ccc(NC3N=C(c4ccccc4)c4ccccc4NC3=O)nn2)cc1` (stereo not shown) [Example 377] yielded an EC50 [2] of less than 400 nM and an EC50 [3] of less than 400 nM.

With `CCc1nc(-c2nnc(N[C@H]3N=C(c4ccccc4)c4ccccc4NC3=O)o2)c(N2CCOCC2)s1` [Example 385] the EC50 [2] was less than 400 nM and the EC50 [3] was less than 400 nM.

For `O=C1Nc2ccccc2C(c2ccccc2)=N[C@@H]1Nc1nnc(-c2nc(C3CCC3)sc2N2CCOCC2)o1` [Example 387], the EC50 [2] was less than 400 nM and the EC50 [3] was less than 400 nM.

Compound `O=C1Nc2ccccc2C(c2ccccc2)=N[C@@H]1Nc1nnc(-c2nc(-c3cccnc3)sc2N2CCOCC2)o1` [Example 388] has an EC50 [2] of less than 400 nM and an EC50 [3] of less than 400 nM.

`CC(C)n1cc(-c2nnc(N[C@H]3N=C(c4ccccc4)c4ccccc4NC3=O)o2)c(N2CCOCC2)n1` [Example 403] showed an EC50 [2] of less than 400 nM and an EC50 [3] of less than 400 nM.

Compound `CC(F)(F)c1nc(-c2nnc(N[C@H]3N=C(c4ccccc4)c4ccccc4NC3=O)o2)c(N2CCOCC2)s1` [Example 407] has an EC50 [2] of less than 400 nM and an EC50 [3] of less than 400 nM.

Compound `O=C1Nc2ccccc2C(c2ccccc2)=N[C@@H]1Nc1nnc(-c2nc(-c3ccncc3)sc2N2CCOCC2)o1` [Example 429] has an EC50 [2] of less than 400 nM and an EC50 [3] of less than 400 nM.
